Here are results for three compounds from patent US20260028354A1, “TETRAHYDRONAPHTHALENE DERIVATIVES AS ESTROGEN RECEPTOR DEGRADERS” (REGENT OF THE UNIVERSITY OF MICHIGAN, priority 2022, published 2026).

One experiment concerns the target ER in T47D cells (Homo sapiens (Human), UniProt P03372). As to the kind of experiment: In-cell Western (ICW) ER degradation assay in T47D cells. The settings on record: for DC50: ER degradation. The class given is cell-based.
The target in a further experiment is CRBN/DDB1 (Homo sapiens (Human), UniProt Q96SW2). The class given is binding. The settings on record: His tagged CRBN+DDB1, Cy5-labeled Thalidomide probe, one hour; read-out: CRBN HTRF IC50. How it is done:
The binding potency was determined using HTRF assay technology (Perkin Elmer). Compounds were serially diluted in DMSO and […] volume was transferred to white 384-well plate.

The subject of the next experiment is MCF-7 cells. As to the kind of experiment: CellTiter-Glo (CTG) cell proliferation assay in MCF-7 cells. The class given is cell-based. The settings on record: Homo sapiens, MCF7, 144 h, MCF-7 cell proliferation, Day 6. The source says:
(§1) CellTiter-Glo® (CTG) Assays in MCF-7 and T47D Cell Lines.
(§2) In vitro Assay: MCF-7 and T47D CTG assay

In another experiment the test system is T47D cells. As to the kind of experiment: CellTiter-Glo (CTG) cell proliferation assay in T47D cells. In kind it is cell-based. The note with it: Homo sapiens, 144 h, Day 6.
Source text: as §1, §2

For the next experiment, the target named is ERα_LBD (GST) (Homo sapiens (Human), UniProt P03372). As to the kind of experiment: IC50 measurements for binding to ERα_LBD (GST), LanthaScreen TR-FRET competitive binding. The settings on record: ERα_LBD (GST) 4 nM, Fluormone ES2 Green tracer, 60 min; read-out: ERα HTRF IC50. Summed up: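 Competitive TR-FRET displacement of Fluormone ES2 Green tracer (3 nM) from GST-tagged human ERα LBD (4 nM) with Tb anti-GST (2 nM), in nuclear receptor buffer K plus 5 mM DTT, 1% DMSO. 60 min at room temperature, dark; 520/495 nm ratio vs log[compound] fitted sigmoidally for IC50.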
Sequence of ERα_LBD (GST) (P03372 311-547): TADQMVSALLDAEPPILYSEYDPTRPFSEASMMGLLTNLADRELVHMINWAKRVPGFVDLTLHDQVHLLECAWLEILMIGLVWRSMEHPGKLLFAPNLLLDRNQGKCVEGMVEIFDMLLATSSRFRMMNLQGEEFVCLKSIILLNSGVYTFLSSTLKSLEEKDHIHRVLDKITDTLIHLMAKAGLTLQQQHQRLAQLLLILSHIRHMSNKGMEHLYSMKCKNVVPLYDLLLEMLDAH

The target of a further experiment is ER in MCF-7 cells (Homo sapiens (Human), UniProt P03372). The experiment in a line: In-cell Western (ICW) ER degradation assay in MCF-7 cells. The class given is cell-based. The note with it: for DC50: MCF-7, ER degradation, read-out: MCF7 DC50.
Sequence of ER in MCF-7 cells (P03372 whole entry): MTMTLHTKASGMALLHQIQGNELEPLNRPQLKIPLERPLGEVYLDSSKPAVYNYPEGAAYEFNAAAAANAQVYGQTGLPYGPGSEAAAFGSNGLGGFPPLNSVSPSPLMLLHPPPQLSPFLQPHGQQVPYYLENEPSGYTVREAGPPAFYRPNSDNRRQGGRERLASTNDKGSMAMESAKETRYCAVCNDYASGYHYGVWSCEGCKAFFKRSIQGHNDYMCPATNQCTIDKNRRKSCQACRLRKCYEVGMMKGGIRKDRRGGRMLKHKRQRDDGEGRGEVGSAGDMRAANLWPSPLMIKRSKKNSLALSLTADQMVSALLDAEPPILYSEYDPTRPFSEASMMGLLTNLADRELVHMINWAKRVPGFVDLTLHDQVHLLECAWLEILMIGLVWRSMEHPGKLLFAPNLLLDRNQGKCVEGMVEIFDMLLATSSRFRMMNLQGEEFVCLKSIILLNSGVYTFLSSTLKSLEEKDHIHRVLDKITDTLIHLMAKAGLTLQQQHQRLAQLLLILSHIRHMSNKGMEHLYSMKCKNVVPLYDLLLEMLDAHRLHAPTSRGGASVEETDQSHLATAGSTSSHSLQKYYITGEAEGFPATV
Where [1] appears, read: MCF7, MCF-7, maximal ER degradation, 16 hrs treatment, read-out: MCF7 Dmax.

Read-outs that look alike come from different tables or passages of the source.

Sequence of ER in T47D cells (P03372 whole entry): as above
Sequence of CRBN/DDB1 (Q96SW2 whole entry, species assumed): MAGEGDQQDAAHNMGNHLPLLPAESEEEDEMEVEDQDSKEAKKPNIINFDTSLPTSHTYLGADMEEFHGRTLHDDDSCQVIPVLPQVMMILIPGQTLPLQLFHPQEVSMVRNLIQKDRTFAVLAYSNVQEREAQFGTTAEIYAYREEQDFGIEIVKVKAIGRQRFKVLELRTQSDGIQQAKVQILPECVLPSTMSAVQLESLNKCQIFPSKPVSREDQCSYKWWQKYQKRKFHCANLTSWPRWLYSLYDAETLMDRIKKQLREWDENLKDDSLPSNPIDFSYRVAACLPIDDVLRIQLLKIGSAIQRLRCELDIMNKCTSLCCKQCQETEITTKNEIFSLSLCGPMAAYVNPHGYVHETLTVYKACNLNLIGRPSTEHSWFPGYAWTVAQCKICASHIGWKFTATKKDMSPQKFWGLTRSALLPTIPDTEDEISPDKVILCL
Sequence of CRBN/DDB1 (Q16531 whole entry partner, species assumed): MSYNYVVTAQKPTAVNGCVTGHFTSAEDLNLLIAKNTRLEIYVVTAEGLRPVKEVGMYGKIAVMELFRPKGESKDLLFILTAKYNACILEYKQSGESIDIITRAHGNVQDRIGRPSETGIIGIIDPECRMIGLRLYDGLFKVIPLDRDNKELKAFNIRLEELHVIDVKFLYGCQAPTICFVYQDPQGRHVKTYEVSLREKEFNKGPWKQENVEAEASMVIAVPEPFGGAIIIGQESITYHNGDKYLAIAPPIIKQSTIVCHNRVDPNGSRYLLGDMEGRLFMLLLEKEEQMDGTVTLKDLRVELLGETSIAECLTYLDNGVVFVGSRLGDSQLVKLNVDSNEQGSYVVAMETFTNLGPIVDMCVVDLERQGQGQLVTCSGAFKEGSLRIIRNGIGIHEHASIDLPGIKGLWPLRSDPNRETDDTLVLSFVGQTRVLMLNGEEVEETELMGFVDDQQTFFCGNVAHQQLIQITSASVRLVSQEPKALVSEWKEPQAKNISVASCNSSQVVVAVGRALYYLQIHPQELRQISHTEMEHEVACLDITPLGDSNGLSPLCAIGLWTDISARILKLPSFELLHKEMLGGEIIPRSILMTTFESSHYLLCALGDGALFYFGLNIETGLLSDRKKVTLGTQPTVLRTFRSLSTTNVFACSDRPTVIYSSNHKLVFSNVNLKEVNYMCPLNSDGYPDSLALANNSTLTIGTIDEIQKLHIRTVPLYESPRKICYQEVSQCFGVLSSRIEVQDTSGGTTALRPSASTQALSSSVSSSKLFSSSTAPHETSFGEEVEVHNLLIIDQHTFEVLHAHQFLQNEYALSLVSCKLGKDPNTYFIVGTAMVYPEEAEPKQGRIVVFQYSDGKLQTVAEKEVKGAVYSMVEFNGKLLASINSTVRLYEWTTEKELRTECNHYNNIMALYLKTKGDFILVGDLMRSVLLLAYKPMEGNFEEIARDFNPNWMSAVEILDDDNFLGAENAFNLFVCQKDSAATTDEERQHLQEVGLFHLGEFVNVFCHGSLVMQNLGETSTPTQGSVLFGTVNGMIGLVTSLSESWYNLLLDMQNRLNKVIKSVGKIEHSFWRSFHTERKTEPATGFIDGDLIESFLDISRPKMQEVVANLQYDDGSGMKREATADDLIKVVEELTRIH

On to `COc1cc(N2CCC3(CC2)CC(CN2CCC4(CC2)COc2c4ccc4c2CN([C@H]2CCC(=O)NC2=O)C4=O)C3)c(F)cc1[C@@H]1c2ccc(O)cc2CC[C@@H]1c1ccccc1` [Compound A100, (S)-3-(1′-((7-(2-fluoro-4-((1S,2S)-6-hydroxy-2-phenyl-1,2,3,4-tetrahydronaphthalen-1-yl)-5-methoxyphenyl)-7-azaspiro[3.5]nonan-2-yl)methyl)-6-oxo-6,8-dihydro-2H,7H-spiro[furo[2,3-e]isoindole-3,4′-piperidin]-7-yl)piperidine-2,6-dione], for which the DC50 on ER in T47D cells (16 hrs treatment) and at ER in MCF-7 cells (16 hrs treatment) was < 0.001 µM throughout. The Dmax was > 75% on ER in T47D cells (read-out: T47D Dmax, T47D, maximal ER degradation, 16 hrs treatment) and > 75% on ER in MCF-7 cells (MCF7, read-out: MCF7 Dmax, MCF-7, maximal ER degradation, 16 hrs treatment). Moreover, the IC50 on CRBN/DDB1 is < 0.05 µM; in the experiment with MCF-7 cells it was < 0.01 µM; with T47D cells, < 0.01 µM; on ERα_LBD (GST), < 0.01 µM.

For the compound `O=C1CC[C@H](N2Cc3cc4c(cc3C2=O)OC[C@@H]2CN(CC3COC5(C3)CN(c3ccc([C@H]6c7ccc(O)cc7CC[C@H]6c6ccccc6)cc3)C5)CCN42)C(=O)N1` (single isomer, unassigned) [Compound A43], the DC50 on ER in T47D cells (16 hrs treatment) and on ER in MCF-7 cells (16 hrs treatment) was < 0.001 µM throughout. Moreover, the maximal degradation (Dmax) is > 75% at ER in T47D cells (maximal ER degradation, 16 hrs treatment, read-out: T47D Dmax) and 50 to 75% at ER in MCF-7 cells (setting [1]). The IC50 was 0.05 to 0.5 µM at CRBN/DDB1, 0.01 to 0.1 µM with MCF-7 cells, 0.01 to 0.1 µM with T47D cells and < 0.01 µM on ERα_LBD (GST).

Regarding `COc1cc(N2CCC3(CC2)C[C@H](CN2CCN4c5cc6c(cc5OC[C@@H]4C2)C(=O)N([C@H]2CCC(=O)NC2=O)C6)CO3)ccc1[C@@H]1c2ccc(O)cc2CC[C@@H]1c1ccccc1` (single isomer, unassigned) [Compound A135], the DC50 on ER in T47D cells (16 hrs treatment) and at ER in MCF-7 cells (16 hrs treatment) was < 0.001 µM each time. For the same compound, the IC50 was 0.5 to 5 µM on CRBN/DDB1, < 0.01 µM in the experiment with MCF-7 cells, < 0.01 µM with T47D cells and < 0.01 µM at ERα_LBD (GST). Further, at ER in MCF-7 cells (setting [1]), the Dmax is > 75%.
